Results from patent publication US8680113B2, “BMI-1 protein expression modulators” (PTC Therapeutics, Inc., priority 2008, dated 2014).
Where two headings read alike, the source gives them in different places.

Columns and labels:
[1] = system: HT1080 cells (human fibrosarcoma cells); format: in vivo, nude mice
Method: (§1) HT1080 cells (human fibrosarcoma cells) were implanted subcutaneously in nude mice. After seven days, mice were administered compounds subcutaneously at 30 or 60 mg/kg/day for ten days. The tumors were then excised from mice and homogenized in Tris-HCl buffer containing a cocktail of proteinase inhibitors. Intratumor Bmi-1 levels were subsequently measured using the Bmi-1 ELISA assay of Example 1. Protein concentrations of the homogenates were measured with a Bio-Rad Protein assay kit and intratumor Bmi-1 levels were normalized to the protein concentrations. Treatment with the compound for ten days inhibited tumor growth by 35% as compared to the vehicle-treated control groups. […] Since p27 expression is not regulated by Bmi-1 activity, no changes in the levels of this protein were observed within treated tumors.

Bmi-1 [2] = assay: In-Vivo Xenograft Model: intratumor Bmi-1 levels by Bmi-1 ELISA; design: species or system nude mice; settings: subcutaneously at 30 or 60 mg/kg/day for ten days, compared to the vehicle control (p<0.002)
Method: as §1

p27 = assay: In-Vivo Xenograft Model: intratumor p27 levels (control); design: species or system nude mice; settings: subcutaneously at 30 or 60 mg/kg/day for ten days
Method: as §1

Bmi-1 [3] = assay: Cell Model Assay: Bmi-1 expression in K562; format: cell-based; settings: K562 (chronic myelogenous leukemia)
Method: (§2) Using assay conditions known to those skilled in the art, the ability of the compounds described herein to reduce Bmi-1 expression in HT1080 (fibrosarcoma), U87-MG (glioblastoma), T98G (glioblastoma), K562 (chronic myelogenous leukemia) and KG1 (acute myelogenous leukemia) cell lines was tested (at test compound concentrations calculated from the ELISA assay data shown in Example 1) compared to puromycin as a control to provide the EC50 values shown in Table 2. The term “ND” means that data was not determined.

Bmi-1 [4] = assay: Cell Model Assay: Bmi-1 expression in KG1; format: cell-based; settings: KG1 (acute myelogenous leukemia)
Method: as §2

[5] = system: Jeko, Mino and Rec-1 cells; assay: cells; format: cell-based; settings: 72 h, read-out: decrease in cell viability
MCL-Jeko = assay: Mantle Cell Lymphoma Assay: cytotoxicity, Jeko; format: cell-based; settings: MCL-Jeko, 72 hrs
Source text: MCL cell lines Jeko, Mino, and Rec-1 were provided by American Type Culture Collection: The Bioresource Center (Manassas, Va.). […] Carlsbad, Calif.) in T-75 culture flasks. Cell concentration was maintained between 2 to 3×10^5 cells/mL. Early passage cells (passages 2-4) were used for all experiments. Ficoll-Histopaque density sedimentation (Sigma Aldrich) was used for separation of debris and purification of cell lines prior to experiments. […] The cytotoxic effect of test compounds on the MCL-cell lines was assessed by measuring cell concentration and cell viability using a Beckman Coulter Vi-Cell Counter. Controls and treated cells were harvested and counted at day 3.

Bmi-1 [6] = assay: Western Blot Analysis: Bmi-1 levels in MCL cell lines; format: cell-based; settings: MCL cells cultured for 72 hrs, FIG. 2
Method: (§3) Western Blot analysis was used to determine cytoplasmic protein levels of Bmi-1 and activation of key executioner proteins (Caspases 3, 7, 8, 9) involved in apoptosis. Protein levels were measured in Bmi-1 inhibitor-treated mantle cell lymphoma cell lines. […] Cells were harvested at each time point, washed with ice-cold PBS, and lysed with 1× lysis buffer (20 mM Tris-HCl (pH 7.5), 150 mM NaCl, 1 mM Na2EDTA, 1 mM EGTA, 1% Triton, 2.5 mM sodium pyrophosphate, 1 mM beta-glycerophosphate, 1 mM Na3VO4, 1 μg/ml leupeptin; Cell Signaling Technology; Danvers, Mass.). Protein concentrations were determined using Pierce BCA protein assay (Thermo Scientific; Rockford, Ill.). Electrophoresis of cell lysates (25 μg) were performed with Mini Protean Systems by Bio-Rad Laboratories and run in Bio-Rad Readymade Pre-Cast Gels (4-20% Tris-HCl gels). Proteins were transferred onto PVDF membrane (Bio-Rad), and immunoblotted with anti-Bmi-1-clone F6 antibody (Millipore; Temecula, Calif.) and Caspases 3, 7, 8 and 9 (Cell Signaling Technology; Danvers, Mass.).

[7] = system: Caspases 3, 7, 8, 9 and PARP; assay: Western Blot Analysis: activation of apoptosis proteins in MCL cell lines; format: cell-based; settings: MCL cells cultured for 72 hrs, FIG. 2
Method: as §3

[8] = system: Jeko, Mino and Rec1 MCL-cell lines; assay: Cell Cycle Analysis (propidium iodide flow cytometry); format: cell-based; settings: MCL cells, 60 nM, FIG. 3
Method: Cell cycle analysis was performed for MCL-cell lines treated with Bmi-1 inhibitor Compounds 1 (data not shown), 14 and 49 (data not shown). For example, Jeko, Mino and Red cells treated with BMI-1 inhibitor Compound 14 at concentrations of 60 nM, 75 nM, and 60 nM, respectively were cultured in T-25 flasks for 24, 48 and 72 hours in 37° C. About 1×10^6 cells were harvested, washed with PBS, fixed with ice-cold 70% ethanol, and treated with 1 mg/ml RNase A (Invitrogen; Carlsbad, Calif.). Cells were then stained with 5 μL 1 mg/mL Propidium Iodide (Sigma-Aldrich; St. Louis, Mo.), incubated in ice for at least 1 hr, and the cell cycle profile was determined using flow cytometry analysis. The same protocol was followed for cell cycle analysis of Jeko, Mino, and Rec1 cell lines treated with Compounds 1 (data not shown) and 49 (data not shown).

`COc1cc(Br)c(Nc2nc(-c3c(C)nc4ncccn34)cs2)c(Br)c1` [Cpd 1, N-(2,6-dibromo-4-methoxyphenyl)-4-(2-methylimidazo[1,2-a]pyrimidin-3-yl)thiazol-2-amine] was tested, and the “toxicity within treated mice” value ([1]; over the 10 day experiment) was “no toxicity was observed”, the inhibited tumor growth ([1]; subcutaneously at 30 or 60 mg/kg/day for ten days, compared to vehicle-treated control groups) was 35% and the “reduced intratumor Bmi-1 protein levels” value (Bmi-1 [2]) was 67%. The “p27 levels within treated tumors” value (p27) was “no changes”, the EC50 (Bmi-1 [3]) was 374 nM and the EC50 (Bmi-1 [4]) was 321 nM. For the same molecule, the cytotoxicity at 0.08 µM ([5]; Jeko, Mino and Rec-1 cells, 80 nM, 75 nM and 80 nM, after 3 days of treatment) was 70 to 90%.

With `COc1ccc(Nc2nc(-c3c(C)nc4ncccn34)cs2)cc1` [Cpd 14, N-(4-methoxyphenyl)-4-(2-methylimidazo[1,2-a]pyrimidin-3-yl)thiazol-2-amine] the “Cell Concentration (×10^6)” value (MCL-Jeko; 0.004 μM) was 1.83 ± 0.03 ×10^6, the viability at 0.004 µM (MCL-Jeko; 0.004 μM, read-out: Cell Viability (%)) was 74.9 ± 0.55% and the “Cell Concentration (×10^6)” value (MCL-Jeko; 0.037 μM) was 1.63 ± 0.05 ×10^6. The viability at 0.037 µM (MCL-Jeko; 0.037 μM, read-out: Cell Viability (%)) was 69.4 ± 1.63%, the “Cell Concentration (×10^6)” value (MCL-Jeko; 0.11 μM) was 0.07 ± 0.01 ×10^6 and the viability at 0.11 µM (MCL-Jeko; 0.11 μM, read-out: Cell Viability (%)) was 6.5 ± 0.55%. The “Cell Concentration (×10^6)” value (MCL-Jeko; 0.33 μM) was 0.02 ± 0.00 ×10^6, the viability at 0.33 µM (MCL-Jeko; 0.33 μM, read-out: Cell Viability (%)) was 1.9 ± 0.31% and the “Cell Concentration (×10^6)” value (MCL-Jeko; 1 μM) was 0.02 ± 0.00 ×10^6. The viability at 1 µM (MCL-Jeko; 1 μM, read-out: Cell Viability (%)) was 1.6 ± 0.26%, the “Cell Concentration (×10^6)” value (MCL-Jeko; 3 μM) was 0.03 ± 0.00 ×10^6 and the viability at 3 µM (MCL-Jeko; 3 μM, read-out: Cell Viability (%)) was 2.5 ± 0.35%. The Bmi-1 levels (Bmi-1 [6]) was “time dependant decrease”, the “activation of Caspase-9 and PARP” value [7] was “activation of Caspase-9 and PARP” and the DNA content ([8]; at 48 and 72 hrs) was “increase in DNA content”. The cell cycle profile ([8]; at 24 hrs) was “G2/M block” and the cytotoxicity at 0.08 µM [5] was 70 to 90%.
